Assay results published in ChEMBL document CHEMBL4340502, “Anti-biofilm and anti-adherence properties of novel cyclic dipeptides against oral pathogens” (Bioorg Med Chem, 2019).
Values after ≈ are worked out from the molar mass of the structure shown. Blank lines part the entries; values can stand above or below the molecule they belong to. Active and inactive are the calls of the source. Unless noted, no cut-off for these calls is given here.

Experiments:
[1] = target: Mu-type opioid receptor (Rattus norvegicus) (UniProt P33535); test: Displacement of [3H]DAMGO from mu-opioid receptor in Long-Evans rat brain after 1 hr by liquid scintillation counting method; assay type: tissue-based
Sequence of Mu-type opioid receptor (Rattus norvegicus) (P33535 whole entry): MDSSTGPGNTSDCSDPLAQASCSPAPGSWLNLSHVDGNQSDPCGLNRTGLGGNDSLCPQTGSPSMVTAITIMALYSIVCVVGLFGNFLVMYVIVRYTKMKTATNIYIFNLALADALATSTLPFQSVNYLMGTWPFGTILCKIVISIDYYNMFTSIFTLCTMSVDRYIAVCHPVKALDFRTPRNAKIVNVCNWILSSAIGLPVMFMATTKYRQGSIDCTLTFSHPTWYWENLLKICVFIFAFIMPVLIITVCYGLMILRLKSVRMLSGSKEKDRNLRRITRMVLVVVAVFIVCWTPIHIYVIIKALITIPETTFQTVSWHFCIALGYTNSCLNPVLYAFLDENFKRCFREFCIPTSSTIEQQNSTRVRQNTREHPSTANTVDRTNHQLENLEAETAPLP

Fusobacterium nucleatum = test: Antibiofilm activity against Fusobacterium nucleatum ATCC 25586 assessed as inhibition of biofilm formation up to 96 ug/mL after 24 hrs by crystal violet staining based assay; assay type: functional, organism-based
Porphyromonas gingivalis = test: Antibiofilm activity against Porphyromonas gingivalis ATCC 33277 assessed as inhibition of biofilm formation up to 96 ug/mL after 24 hrs by crystal violet staining based assay; assay type: functional, organism-based
Streptococcus mutans [2] = test: Inhibition of planktonic growth of Streptococcus mutans ATCC 25175 at 96 ug/mL measured after 24 hrs relative to control; assay type: organism-based
[3] = tested on: Limosilactobacillus fermentum; test: Antibiofilm activity against Lactobacillus fermentum LacB1 assessed as inhibition of biofilm formation up to 96 ug/mL after 24 hrs by crystal violet staining based assay; assay type: functional, organism-based
Candida albicans [4] = test: Antiadherence activity against FITC-labelled Candida albicans ATCC 28366 assessed as reduction in bacterial adhesion to hydroxylapatite up to 96 ug/mL after 1 hr by fluorescence assay relative to control; assay type: functional
Listeria monocytogenes = test: Growth inhibition of Listeria monocytogenes WSLC 1001 incubated for 24 hrs under aerobic condition by microdilution method; assay type: organism-based; conditions: in vitro
Staphylococcus aureus [5] = test: Growth inhibition of Staphylococcus aureus ATCC 6538 incubated for 24 hrs under aerobic condition by microdilution method; assay type: organism-based; conditions: in vitro
Pseudomonas aeruginosa [6] = test: Growth inhibition of Pseudomonas aeruginosa ATCC 10145 incubated for 24 hrs under aerobic condition by microdilution method; assay type: organism-based
Escherichia coli [7] = test: Growth inhibition of Escherichia coli ATCC 15939 incubated for 24 hrs under aerobic condition by microdilution method; assay type: organism-based
Streptococcus mutans [8] = test: Antibiofilm activity against Streptococcus mutans ATCC 25175 assessed as inhibition of biofilm formation up to 96 ug/mL after 24 hrs by crystal violet staining-based assay; assay type: functional, organism-based
Fibroblast = test: Cytotoxicity against human fibroblasts; assay type: cell-based
A549 = test: Growth inhibition of human A549 cells; assay type: functional, cell-based
Candida albicans [9] = test: Antibiofilm activity against Candida albicans ATCC 28366 assessed as reduction of biofilm formation up to 96 ug/mL after 24 hrs by crystal violet staining based assay; assay type: functional, organism-based
Actinomyces naeslundii = test: Antibiofilm activity against Actinomyces naeslundii ATCC 49340 assessed as reduction in biofilm formation up to 96 ug/mL after 24 hrs by crystal violet staining-based assay; assay type: functional, organism-based
Candida albicans [10] = test: Growth inhibition of Candida albicans ATCC 28366 up to 96 ug/ml measured after 24 hrs by microdilution method; assay type: organism-based; conditions: in vitro
Streptococcus mutans [11] = test: Inhibition of planktonic growth of Streptococcus mutans ATCC 25175 up to 96 ug/mL after 24 hrs relative to control; assay type: organism-based
Streptococcus mutans [12] = test: Growth inhibition of Streptococcus mutans ATCC 25175 incubated for 24 hrs under aerobic condition by microdilution method; assay type: organism-based
Streptococcus mutans [13] = test: Bactericidal activity against Streptococcus mutans ATCC 25175; assay type: organism-based
Streptococcus mutans [14] = test: Antiadherence activity in FITC-labelled Streptococcus mutans ATCC 25175 assessed as reduction in bacterial adhesion to hydroxylapatite up to 96 ug/mL after 1 hr fluorescence assay; assay type: functional, organism-based
Streptococcus mutans [15] = test: Inhibition of planktonic growth of Streptococcus mutans ATCC 25175 at MIC> 192 ug/mL after 24 hrs relative to control; assay type: organism-based
Staphylococcus aureus [16] = test: Antibacterial activity against Staphylococcus aureus MTCC 902 measured after 24 hrs by broth dilution method; assay type: functional; conditions: MTCC 902, 24 h
Escherichia coli [17] = test: Antibacterial activity against Escherichia coli MTCC 2622 measured after 24 hrs by broth dilution method; assay type: functional; conditions: MTCC 2622, 24 h
Pseudomonas aeruginosa [18] = test: Antibacterial activity against Pseudomonas aeruginosa MTCC 2642 measured after 24 hrs by broth dilution method; assay type: functional; conditions: MTCC 2642, 24 h
Streptococcus mutans [19] = test: Antiadherence activity in FITC-labelled Streptococcus mutans ATCC 25175 assessed as reduction of bacterial adhesion to hydroxylapatite at 96 ug/mL after 1 hr by fluorescence assay; assay type: functional; parameters: scale not given: the % may be the effect or the level left
Candida albicans [20] = test: Antiadherence activity in FITC-labelled Candida albicans ATCC 28366 assessed as reduction of bacterial adhesion to hydroxylapatite at 96 ug/mL after 1 hr by fluorescence assay relative to control; assay type: functional; parameters: scale not given: the % may be the effect or the level left
[21] = Solubility of the compound in water; assay type: physicochemical; conditions: buffer
Candida albicans [22] = test: Antiadherence activity against FITC-labelled Candida albicans ATCC 28366 assessed as reduction in bacterial adhesion to hydroxylapatite at 3 ug/mL after 1 hr by fluorescence assay; assay type: functional, organism-based
Streptococcus mutans [23] = test: Antiadherence activity in FITC-labelled Streptococcus mutans ATCC 25175 assessed as reduction in bacterial adhesion to hydroxylapatite at 3 ug/mL after 1 hr fluorescence assay; assay type: functional, organism-based

Activity [1]: Active
inhibition (INH) (Streptococcus mutans [2]): 20%
IC50 (A549): 10 µM
SMILES: O=C1N[C@@H](Cc2ccc(O)cc2)C(=O)N[C@H]1Cc1ccccc1
inhibition (Fusobacterium nucleatum): inactive
inhibition (Porphyromonas gingivalis): inactive
inhibition [3]: inactive
Activity (Candida albicans [4]): inactive
MIC (Listeria monocytogenes): > 192 µg/mL
MIC (Staphylococcus aureus [5]): > 192 µg/mL
MIC (Pseudomonas aeruginosa [6]): > 192 µg/mL
MIC (Escherichia coli [7]): > 192 µg/mL
inhibition (Streptococcus mutans [8]): inactive
Activity (Fibroblast): Non-Toxic
Activity (Candida albicans [9]): Active
Activity (Actinomyces naeslundii): inactive
growth inhibition (GI) (Candida albicans [10]): Non-Toxic
growth inhibition (GI) (Streptococcus mutans [11]): Toxic

Activity [1]: Active
SMILES: O=C1N[C@@H](Cc2ccc(O)cc2)C(=O)N[C@H]1Cc1ccc(O)cc1
inhibition (Fusobacterium nucleatum): inactive
inhibition (Porphyromonas gingivalis): inactive
MIC (Streptococcus mutans [12]): 96 µg/mL (≈ 294 µM)
MBC (Streptococcus mutans [13]): > 192 µg/mL
inhibition [3]: inactive
Activity (Candida albicans [4]): 20%
Activity (Streptococcus mutans [14]): inactive
MIC (Listeria monocytogenes): > 192 µg/mL
MIC (Staphylococcus aureus [5]): > 192 µg/mL
MIC (Pseudomonas aeruginosa [6]): > 192 µg/mL
MIC (Escherichia coli [7]): > 192 µg/mL
inhibition (Streptococcus mutans [8]): inactive
Activity (Candida albicans [9]): Active
Activity (Actinomyces naeslundii): inactive
growth inhibition (GI) (Candida albicans [10]): Non-Toxic
growth inhibition (GI) (Streptococcus mutans [11]): Toxic

inhibition (INH) (Streptococcus mutans [15]): 20%
MIC (Staphylococcus aureus [16]): 16 µg/mL (≈ 51.6 µM)
MIC (Escherichia coli [17]): 64 µg/mL (≈ 206 µM)
MIC (Pseudomonas aeruginosa [18]): 32 µg/mL (≈ 103 µM)
SMILES: O=C1N[C@H](Cc2ccc(O)cc2)C(=O)N[C@@H]1Cc1ccccc1
inhibition (Fusobacterium nucleatum): inactive
inhibition (Porphyromonas gingivalis): inactive
inhibition [3]: inactive
Activity (Candida albicans [4]): inactive
MIC (Listeria monocytogenes): > 192 µg/mL
MIC (Staphylococcus aureus [5]): > 192 µg/mL
MIC (Pseudomonas aeruginosa [6]): > 192 µg/mL
MIC (Escherichia coli [7]): > 192 µg/mL
inhibition (Streptococcus mutans [8]): inactive
Activity (Fibroblast): Non-Toxic
Activity (Candida albicans [9]): Active
Activity (Actinomyces naeslundii): inactive
growth inhibition (GI) (Candida albicans [10]): Non-Toxic
growth inhibition (GI) (Streptococcus mutans [11]): Toxic

solubility [21]: Insoluble
SMILES: O=C1N[C@H](Cc2ccc(OCc3ccccc3)cc2)C(=O)N[C@H]1Cc1ccc(OCc2ccccc2)cc1
inhibition (Fusobacterium nucleatum): inactive
inhibition (Porphyromonas gingivalis): inactive
inhibition [3]: inactive
Activity (Streptococcus mutans [19]): 82%
Activity (Candida albicans [20]): 53%
MIC (Listeria monocytogenes): > 192 µg/mL
MIC (Staphylococcus aureus [5]): > 192 µg/mL
MIC (Pseudomonas aeruginosa [6]): > 192 µg/mL
MIC (Escherichia coli [7]): > 192 µg/mL
inhibition (Streptococcus mutans [8]): inactive
growth inhibition (GI) (Streptococcus mutans [11]): Non-Toxic
Activity (Candida albicans [22]): inactive
Activity (Streptococcus mutans [23]): inactive
